Data reported in ChEMBL document CHEMBL4342458, “Reisolation and Configurational Reinvestigation of Cottoquinazolines E-G from an Arthropod-Derived Strain of the Fungus Neosartorya fischeri” (2020).

What was measured:
Type in all cases: functional
Escherichia coli = test: Antibacterial activity against ESBL-producing Escherichia coli ATCC 35218 assessed as reduction in microbial growth after 16 hrs by broth microdilution method; conditions: ATCC 35218, 16 h
Pseudomonas aeruginosa = test: Antibacterial activity against Pseudomonas aeruginosa ATCC 27853 assessed as reduction in microbial growth after 16 hrs by broth microdilution method; conditions: ATCC 27853, 16 h
Acinetobacter baumannii = test: Antibacterial activity against Acinetobacter baumannii ATCC 19606 assessed as reduction in microbial growth after 16 hrs by broth microdilution method; conditions: ATCC 19606, 16 h
Klebsiella pneumoniae = test: Antibacterial activity against Klebsiella pneumoniae ATCC BAA2146 assessed as reduction in microbial growth after 16 hrs by broth microdilution method; conditions: ATCC BAA2146, 16 h
Enterococcus faecalis = test: Antibacterial activity against Enterococcus faecalis ATCC 29212 assessed as reduction in microbial growth after 16 hrs by broth microdilution method; conditions: ATCC 29212, 16 h
Staphylococcus aureus = test: Antibacterial activity against methicillin-resistant Staphylococcus aureus ATCC 43300 assessed as reduction in microbial growth after 16 hrs by broth microdilution method; conditions: ATCC 43300, 16 h

SMILES	MIC (Escherichia coli) [µg/mL]	MIC (Pseudomonas aeruginosa) [µg/mL]	MIC (Acinetobacter baumannii) [µg/mL]	MIC (Klebsiella pneumoniae) [µg/mL]	MIC (Enterococcus faecalis) [µg/mL]	MIC (Staphylococcus aureus) [µg/mL]
C[C@@H]1N[C@H]2N(C1=O)c1ccccc1[C@@]21C[C@H]2C(=O)N[C@@H](O1)c1nc3ccccc3c(=O)n12	≥ 100	≥ 100	≥ 100	≥ 100	≥ 100	≥ 100
C[C@@H]1N[C@H]2N(C1=O)c1ccccc1[C@@]21C[C@H]2C(=O)N(C)[C@@H](O1)c1nc3ccccc3c(=O)n12	8	32	32	≥ 100	16	≥ 100
C[C@H]1C(=O)N2c3ccccc3[C@@]3(O)C[C@H]4C(=O)N[C@H](c5nc6ccccc6c(=O)n54)N1[C@@H]23	≥ 100	≥ 100	≥ 100	≥ 100	≥ 100	≥ 100
NCC[C@H](O)C(=O)N[C@@H]1C[C@H](N)[C@@H](O[C@H]2O[C@H](CN)[C@@H](O)[C@H](O)[C@H]2O)[C@H](O)[C@H]1O[C@H]1O[C@H](CO)[C@@H](O)[C@H](N)[C@H]1O [AMIKACIN]	4	2	2	8		
CO/N=C(\C(=O)N[C@@H]1C(=O)N2C(C(=O)O)=C(CSc3nc(=O)c(O)nn3C)CS[C@H]12)c1csc(N)n1 [CEFTRIAXONE]	8	2	8	8		
CN[C@H](CC(C)C)C(=O)N[C@H]1C(=O)N[C@@H](CC(N)=O)C(=O)N[C@H]2C(=O)N[C@H]3C(=O)N[C@H](C(=O)N[C@H](C(=O)O)c4cc(O)cc(O)c4-c4cc3ccc4O)[C@H](O)c3ccc(c(Cl)c3)Oc3cc2cc(c3O[C@@H]2O[C@H](CO)[C@@H](O)[C@H](O)[C@H]2O[C@H]2C[C@](C)(N)[C@H](O)[C@H](C)O2)Oc2ccc(cc2Cl)[C@H]1O [VANCOMYCIN]					0.5	
